From ChEMBL document CHEMBL3039007, “Structure-based identification of OATP1B1/3 inhibitors” (Mol Pharmacol, 2013) come the findings set out here.

Each structure is given as a SMILES string.

The first series concerns the target T1, Solute carrier organic anion transporter family member 1B3 (Homo sapiens, UniProt Q9NPD5).
T1 sequence (Q9NPD5 whole entry): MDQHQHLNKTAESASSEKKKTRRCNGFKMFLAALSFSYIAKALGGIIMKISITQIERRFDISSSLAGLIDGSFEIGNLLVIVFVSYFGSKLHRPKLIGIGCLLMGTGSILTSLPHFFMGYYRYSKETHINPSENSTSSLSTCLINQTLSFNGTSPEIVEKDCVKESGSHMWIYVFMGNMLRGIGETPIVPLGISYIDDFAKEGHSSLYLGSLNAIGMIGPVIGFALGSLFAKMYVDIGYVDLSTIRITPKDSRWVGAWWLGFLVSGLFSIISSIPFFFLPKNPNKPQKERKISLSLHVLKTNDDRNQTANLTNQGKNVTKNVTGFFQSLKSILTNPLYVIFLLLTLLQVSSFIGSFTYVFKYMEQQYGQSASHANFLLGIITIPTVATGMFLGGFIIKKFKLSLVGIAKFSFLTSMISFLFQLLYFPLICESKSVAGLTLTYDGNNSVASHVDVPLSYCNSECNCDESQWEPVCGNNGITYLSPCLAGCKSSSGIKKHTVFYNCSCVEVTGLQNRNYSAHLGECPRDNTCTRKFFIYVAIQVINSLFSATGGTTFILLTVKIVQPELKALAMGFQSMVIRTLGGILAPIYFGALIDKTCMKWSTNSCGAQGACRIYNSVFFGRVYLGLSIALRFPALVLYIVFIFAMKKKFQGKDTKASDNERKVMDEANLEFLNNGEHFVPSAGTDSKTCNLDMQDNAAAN
As to conditions: chinese hamster, cho, 10 µM.
A word on the residual activity: it is the signal under treatment as a percentage of the control signal. With `CCOc1cccc(C(=O)c2ccc(O)c(O)c2O)c1`, the residual activity amounted to 108.6%.
On the same count and under the same terms, the value for `CC(=O)Oc1ccc2c(c1OC(C)=O)OC[C@]1(O)Cc3c(cc(OC(C)=O)c(OC(C)=O)c3OC(C)=O)[C@H]21` was 111.5%.
On the same count and under the same terms, with `C=C1C[C@H]2O[C@]2(C)CC[C@@H]2[C@@H]1CC2(C)C` the figure was 80.12%; with `COc1ccc(C(=O)O[C@@H]2CC[C@@]3(C)[C@@H]4CC[C@H]5[C@]6(O)C[C@H](O)[C@@]7(O)[C@@H](CN8C[C@@H](C)CC[C@H]8[C@@]7(C)O)[C@]6(O)C[C@@]53O[C@@]42O)cc1OC.O=S(=O)(O)O`, 91.85%.
As to `CC(=O)Oc1ccc2c(c1)CC[C@@H]1[C@@H]2CC[C@]2(C)[C@@H](OC(C)=O)CC[C@@H]12`, the residual activity turned out to be 113.7%.
Still for that read-out and setting: with `Cc1cc(O)cc(=O)o1` the figure was 97.35%; with `O=P(O)(O)O.c1ccc(CN(CC2=NCCN2)c2ccccc2)cc1` [ANTAZOLINE PHOSPHATE], 97.11%; with `CC(=O)Oc1ccccc1C(=O)O` [ASPIRIN], 96.37%.
Same read-out and setting: the value for `COc1ccc(-c2oc3cc(O[C@@H]4O[C@H](CO)[C@@H](O)[C@H](O)[C@H]4O)c(OC)c(O)c3c(=O)c2OC)cc1O` [CENTAUREIN] was 91.7%; that for `CC1=C(C(=O)O)N2C(=O)[C@@H](NC(=O)[C@H](N)C3=CCC=CC3)[C@H]2SC1` [CEPHRADINE] was 100.4%.
Take `Clc1ccccc1C(c1ccccc1)(c1ccccc1)n1ccnc1` [CLOTRIMAZOLE]: the residual activity is 105.9%.
Still for that read-out and setting: with `CC(=O)O[C@]1(C(C)=O)CC[C@H]2[C@@H]3C=C(Cl)C4=CC(=O)[C@@H]5C[C@@H]5[C@]4(C)[C@H]3CC[C@@]21C` [CYPROTERONE ACETATE] the figure was 103.2%.
The same measure, in the same setting: the value for `CC(=O)OCC(=O)[C@H]1CC[C@H]2[C@@H]3CCC4=CC(=O)CC[C@]4(C)[C@H]3CC[C@]12C` [DESOXYCORTICOSTERONE ACETATE] was 88.97%.
Still for that read-out and setting: the value for `C[C@@H]1C[C@H]2[C@@H]3CCC4=CC(=O)C=C[C@]4(C)[C@@]3(F)[C@@H](O)C[C@]2(C)[C@@]1(O)C(=O)CO` [DEXAMETHASONE] was 103.9%.
On to `CC/C(=C(/CC)c1ccc(O)cc1)c1ccc(O)cc1` [DIETHYLSTILBESTROL], for which the residual activity is 45.56%.
Same read-out and setting: the value for `CC1(C)OC(=O)NC1=O` [DIMETHADIONE] was 109.1%.
In the case of `OCCN(CCO)c1nc(N2CCCCC2)c2nc(N(CCO)CCO)nc(N3CCCCC3)c2n1` [DIPYRIDAMOLE], the residual activity is recorded as 89.24%.
Still for that read-out and setting: the value for `O=c1[nH]c2ccccc2n1CCCN1CCC(n2c(=O)[nH]c3cc(Cl)ccc32)CC1` [DOMPERIDONE] was 111%.
On the same count and under the same terms, the value for `CN(C)CCC=C1c2ccccc2COc2ccccc21.Cl` [DOXEPIN HYDROCHLORIDE] was 101.8%; that for `C[C@H]1c2cccc(O)c2C(=O)C2=C(O)[C@]3(O)C(=O)C(C(N)=O)=C(O)[C@@H](N(C)C)[C@@H]3[C@@H](O)[C@@H]21.Cl` [DOXYCYCLINE HYDROCHLORIDE] was 106%; that for `CN(C)CCOC(C)(c1ccccc1)c1ccccn1.O=C(O)CCC(=O)O` (stereo not drawn) [DOXYLAMINE SUCCINATE] was 108.8%.
With `O=C(CCCN1CC=C(n2c(=O)[nH]c3ccccc32)CC1)c1ccc(F)cc1` [DROPERIDOL], the residual activity is on record as 147.6%.
Take `CN[C@@H](C)[C@H](O)c1ccccc1.Cl` [EPHEDRINE HYDROCHLORIDE]: the residual activity was 105.1%.
For the molecule `C=C1CC[C@H](O)C/C1=C/C=C1\CCC[C@]2(C)[C@@H]([C@H](C)/C=C/[C@H](C)C(C)C)CC[C@@H]12` [ERGOCALCIFEROL], the residual activity is 28.81%.
Same read-out and setting: with `CC(=O)Oc1ccc2c(c1)CC[C@@H]1[C@@H]2CC[C@]2(C)[C@@H](O)CC[C@@H]12` [ESTRADIOL ACETATE] the figure was 101%; with `CCC(=O)O[C@H]1CC[C@H]2[C@@H]3CCc4cc(O)ccc4[C@H]3CC[C@]12C` [ESTRADIOL PROPIONATE], 111.9%.
On the same count and under the same terms, with `CCOc1ccc(Cc2nccc3cc(OCC)c(OCC)cc23)cc1OCC.Cl` [ETHAVERINE HYDROCHLORIDE] the figure was 156.2%; with `COc1cc(O)c2c(=O)cc(C)oc2c1CC=C(C)C` [HETEROPEUCENIN, METHYL ETHER], 110.3%.
The same measure, in the same setting: with `COc1ccc2c(c1)O[C@H]1c3ccc(OC)cc3OC[C@@H]21` [HOMOPTEROCARPIN] the figure was 109.3%; with `CN1C[C@H](CNC(=O)OCc2ccccc2)C[C@@H]2c3cccc4c3c(cn4C)C[C@H]21` [METERGOLINE], 93.79%.
As for `CCOC(=O)C1=C(C)NC(C)=C(C(=O)OC)C1c1cccc([N+](=O)[O-])c1` (stereo not drawn) [NITRENDIPINE], the residual activity turned out to be 77.72%.
Still for that read-out and setting: the value for `COc1ccc(-c2cc(=O)c3c(OC)c(OC)c(OC)c(OC)c3o2)cc1OC` [NOBILETIN] was 133.3%.
Regarding `O=C(O)CCc1nc(-c2ccccc2)c(-c2ccccc2)o1` [OXAPROZIN], the residual activity is 71.47%.
On the same count and under the same terms, with `CC(=O)O[C@H]1C(=O)[C@@]2(C)[C@H]([C@H](OC(=O)c3ccccc3)[C@]3(O)C[C@H](OC(=O)[C@H](O)[C@@H](NC(=O)c4ccccc4)c4ccccc4)C(C)=C1C3(C)C)[C@]1(OC(C)=O)CO[C@@H]1C[C@@H]2O` [PACLITAXEL] the figure was 52.9%; with `CCCCC1C(=O)N(c2ccccc2)N(c2ccccc2)C1=O` [PHENYLBUTAZONE], 62.24%; with `COc1cc(O)cc(/C=C/c2ccccc2)c1` [PINOSYLVIN METHYL ETHER], 91.5%.
On the same count and under the same terms, the value for `CC(=O)[C@H]1CC[C@H]2[C@@H]3CC=C4C[C@@H](O)CC[C@]4(C)[C@H]3CC[C@]12C` [PREGNENOLONE] was 110.4%; that for `COC1=C[C@@H](C)[C@@H]2C[C@H]3OC(=O)C[C@H]4C(C)=C(OC)C(=O)[C@H]([C@@]2(C)C1=O)[C@@]34C` [QUASSIN] was 100.5%.
On the same count and under the same terms, the value for `COc1ccc(/C=C/c2cc(O)cc(O)c2)cc1` [RESVERATROL 4'-METHYL ETHER] was 135%.
Consider `COc1ccc(-c2cc(=O)c3c(OC)c(OC)c(OC)c(OC)c3o2)cc1` [TANGERETIN], for which the residual activity was 175%.
The same measure, in the same setting: the value for `CC(=O)Oc1c(C)c(C)c2c(c1C)CCC(C)(CCCC(C)CCCC(C)CCCC(C)C)O2` (stereo not drawn) [alpha-TOCHOPHERYL ACETATE] was 93.84%.

The target of the next series is T2, Solute carrier organic anion transporter family member 1B1 (Homo sapiens, UniProt Q9Y6L6).
T2 sequence (Q9Y6L6 whole entry): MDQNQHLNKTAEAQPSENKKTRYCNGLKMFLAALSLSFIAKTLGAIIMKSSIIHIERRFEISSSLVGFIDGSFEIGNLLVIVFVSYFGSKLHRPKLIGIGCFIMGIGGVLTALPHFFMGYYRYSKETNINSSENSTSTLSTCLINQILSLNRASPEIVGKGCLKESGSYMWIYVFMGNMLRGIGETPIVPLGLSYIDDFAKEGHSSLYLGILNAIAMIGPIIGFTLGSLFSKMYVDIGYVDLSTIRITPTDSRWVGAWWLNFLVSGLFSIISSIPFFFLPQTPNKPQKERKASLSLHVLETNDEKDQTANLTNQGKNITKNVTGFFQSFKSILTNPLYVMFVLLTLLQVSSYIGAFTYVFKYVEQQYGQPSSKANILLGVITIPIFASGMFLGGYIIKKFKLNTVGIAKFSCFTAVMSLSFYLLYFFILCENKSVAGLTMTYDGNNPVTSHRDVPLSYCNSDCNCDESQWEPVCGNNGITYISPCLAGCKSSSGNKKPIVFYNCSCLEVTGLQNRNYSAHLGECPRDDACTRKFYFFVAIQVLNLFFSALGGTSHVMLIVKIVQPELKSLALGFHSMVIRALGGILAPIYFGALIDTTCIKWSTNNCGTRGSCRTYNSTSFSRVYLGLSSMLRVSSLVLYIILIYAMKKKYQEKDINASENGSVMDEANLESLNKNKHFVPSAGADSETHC
The conditions noted are these: chinese hamster, cho, 10 µM.
On to `CCOc1cccc(C(=O)c2ccc(O)c(O)c2O)c1`, for which the residual activity is 134.3%.
Same read-out and setting: with `CC(=O)Oc1ccc2c(c1OC(C)=O)OC[C@]1(O)Cc3c(cc(OC(C)=O)c(OC(C)=O)c3OC(C)=O)[C@H]21` the figure was 101.4%; with `C=C1C[C@H]2O[C@]2(C)CC[C@@H]2[C@@H]1CC2(C)C`, 54.1%.
Same read-out and setting: the value for `Cc1cc(O)cc(=O)o1` was 87.56%; that for `CCCCC(CC)CN=C(N)N=C(N)NCCCCCCNC(N)=NC(N)=NCC(CC)CCCC.Cl` (stereo not drawn) [ALEXIDINE HYDROCHLORIDE] was 69.95%; that for `CCCCCCCCCCCCC[N+](C)(C)Cc1ccccc1.[Cl-]` [BENZALKONIUM CHLORIDE] was 78.42%.
In the case of `CN1[C@@H]2CC[C@H]1C[C@@H](OC(=O)[C@H](CO)c1ccccc1)C2` [HYOSCYAMINE], the residual activity was 97.76%.
